Data reported in ChEMBL document CHEMBL2021760, “4-(1-Phenyl-1H-pyrazol-4-yl)quinolines as novel, selective and brain penetrant metabotropic glutamate receptor 4 positive allosteric modulators” (Bioorg Med Chem Lett, 2012).
≈ marks a conversion by molar mass, not a printed value. Calls of active or inactive are those of the source. The calls are words filed in the database; no cut-off is given here.

How the values were obtained:
[1] = target: T1, Metabotropic glutamate receptor 4 (Homo sapiens, UniProt Q14833); assay: Positive allosteric modulation of human mGlu4 receptor expressed in BHK cells assessed as potentiation of glutamate-induced calcium mobilization by FLIPR analysis; format: functional, cell-based
[2] = target: T1, Metabotropic glutamate receptor 4; assay: Positive allosteric modulation of human mGlu4 receptor expressed in BHK cells assessed as potentiation of glutamate-induced calcium mobilization by FLIPR analysis relative to PHCCC; format: functional, cell-based
[3] = target: Metabotropic glutamate receptor 8 (Homo sapiens) (UniProt O00222); assay: Agonist activity at mGlu8 receptor at 10 uM; format: functional
Metabotropic glutamate receptor 8 (Homo sapiens), sequence (O00222 whole entry): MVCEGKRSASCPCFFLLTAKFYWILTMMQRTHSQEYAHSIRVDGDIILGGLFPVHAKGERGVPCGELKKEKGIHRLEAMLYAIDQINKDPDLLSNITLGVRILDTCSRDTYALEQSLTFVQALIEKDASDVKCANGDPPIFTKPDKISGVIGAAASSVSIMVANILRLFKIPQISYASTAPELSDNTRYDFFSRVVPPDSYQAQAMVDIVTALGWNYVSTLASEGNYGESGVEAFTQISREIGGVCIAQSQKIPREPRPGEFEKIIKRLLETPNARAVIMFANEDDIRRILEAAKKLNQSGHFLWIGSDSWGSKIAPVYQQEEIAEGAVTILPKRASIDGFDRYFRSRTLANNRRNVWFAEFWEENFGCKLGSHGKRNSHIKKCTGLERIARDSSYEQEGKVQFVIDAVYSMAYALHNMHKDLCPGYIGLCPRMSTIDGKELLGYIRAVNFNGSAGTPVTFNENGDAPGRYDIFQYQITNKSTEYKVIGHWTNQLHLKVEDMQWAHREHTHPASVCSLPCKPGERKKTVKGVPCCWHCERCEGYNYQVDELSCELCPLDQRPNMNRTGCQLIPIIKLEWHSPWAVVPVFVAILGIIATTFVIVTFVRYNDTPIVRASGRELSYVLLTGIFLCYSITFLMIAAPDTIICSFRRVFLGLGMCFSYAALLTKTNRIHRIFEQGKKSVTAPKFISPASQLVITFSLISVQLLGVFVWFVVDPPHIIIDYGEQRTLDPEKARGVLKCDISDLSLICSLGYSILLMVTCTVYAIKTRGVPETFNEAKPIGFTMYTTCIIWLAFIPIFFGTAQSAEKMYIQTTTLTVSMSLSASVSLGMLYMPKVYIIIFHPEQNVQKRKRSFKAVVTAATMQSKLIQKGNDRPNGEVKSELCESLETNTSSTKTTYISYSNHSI

[4] = target: Voltage-gated inwardly rectifying potassium channel KCNH2 (Homo sapiens, UniProt Q12809); assay: Inhibition of human ERG by electrophysiology assay
[5] = target: Metabotropic glutamate receptor 5 (Homo sapiens) (UniProt P41594); assay: Positive allosteric modulation of mGlu5 receptor at 10 uM
[6] = target: Metabotropic glutamate receptor 7 (Homo sapiens) (UniProt Q14831); assay: Negative allosteric modulation of mGlu7 receptor at 10 uM
Metabotropic glutamate receptor 7 (Homo sapiens), sequence (Q14831 whole entry): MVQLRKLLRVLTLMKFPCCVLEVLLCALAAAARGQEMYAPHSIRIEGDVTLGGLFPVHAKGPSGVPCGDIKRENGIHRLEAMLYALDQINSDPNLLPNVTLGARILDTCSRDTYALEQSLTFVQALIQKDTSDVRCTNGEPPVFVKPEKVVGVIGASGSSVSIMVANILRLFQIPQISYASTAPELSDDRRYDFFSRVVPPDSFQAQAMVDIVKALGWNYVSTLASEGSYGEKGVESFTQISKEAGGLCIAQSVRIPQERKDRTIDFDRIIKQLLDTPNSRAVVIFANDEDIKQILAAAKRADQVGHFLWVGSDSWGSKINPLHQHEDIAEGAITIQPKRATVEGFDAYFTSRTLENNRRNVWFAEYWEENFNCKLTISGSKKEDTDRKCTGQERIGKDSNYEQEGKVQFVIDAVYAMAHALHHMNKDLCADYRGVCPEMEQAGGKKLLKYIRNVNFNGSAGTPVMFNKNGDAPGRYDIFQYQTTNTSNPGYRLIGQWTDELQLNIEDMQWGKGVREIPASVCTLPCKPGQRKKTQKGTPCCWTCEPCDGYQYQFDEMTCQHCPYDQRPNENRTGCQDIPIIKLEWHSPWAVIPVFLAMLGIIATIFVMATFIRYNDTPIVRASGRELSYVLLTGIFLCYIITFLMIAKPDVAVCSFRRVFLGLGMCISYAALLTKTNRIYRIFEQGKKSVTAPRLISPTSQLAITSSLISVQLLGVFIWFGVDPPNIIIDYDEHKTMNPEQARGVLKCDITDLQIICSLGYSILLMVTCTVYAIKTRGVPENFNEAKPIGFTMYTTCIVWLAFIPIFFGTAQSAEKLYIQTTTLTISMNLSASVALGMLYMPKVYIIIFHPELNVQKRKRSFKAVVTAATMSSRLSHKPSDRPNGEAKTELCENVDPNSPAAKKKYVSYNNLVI

[7] = target: Metabotropic glutamate receptor 1 (Homo sapiens) (UniProt Q13255); assay: Agonist activity at mGlu1 receptor at 10 uM; format: functional
Metabotropic glutamate receptor 1 (Homo sapiens), sequence (Q13255 19-1194 limits assumed): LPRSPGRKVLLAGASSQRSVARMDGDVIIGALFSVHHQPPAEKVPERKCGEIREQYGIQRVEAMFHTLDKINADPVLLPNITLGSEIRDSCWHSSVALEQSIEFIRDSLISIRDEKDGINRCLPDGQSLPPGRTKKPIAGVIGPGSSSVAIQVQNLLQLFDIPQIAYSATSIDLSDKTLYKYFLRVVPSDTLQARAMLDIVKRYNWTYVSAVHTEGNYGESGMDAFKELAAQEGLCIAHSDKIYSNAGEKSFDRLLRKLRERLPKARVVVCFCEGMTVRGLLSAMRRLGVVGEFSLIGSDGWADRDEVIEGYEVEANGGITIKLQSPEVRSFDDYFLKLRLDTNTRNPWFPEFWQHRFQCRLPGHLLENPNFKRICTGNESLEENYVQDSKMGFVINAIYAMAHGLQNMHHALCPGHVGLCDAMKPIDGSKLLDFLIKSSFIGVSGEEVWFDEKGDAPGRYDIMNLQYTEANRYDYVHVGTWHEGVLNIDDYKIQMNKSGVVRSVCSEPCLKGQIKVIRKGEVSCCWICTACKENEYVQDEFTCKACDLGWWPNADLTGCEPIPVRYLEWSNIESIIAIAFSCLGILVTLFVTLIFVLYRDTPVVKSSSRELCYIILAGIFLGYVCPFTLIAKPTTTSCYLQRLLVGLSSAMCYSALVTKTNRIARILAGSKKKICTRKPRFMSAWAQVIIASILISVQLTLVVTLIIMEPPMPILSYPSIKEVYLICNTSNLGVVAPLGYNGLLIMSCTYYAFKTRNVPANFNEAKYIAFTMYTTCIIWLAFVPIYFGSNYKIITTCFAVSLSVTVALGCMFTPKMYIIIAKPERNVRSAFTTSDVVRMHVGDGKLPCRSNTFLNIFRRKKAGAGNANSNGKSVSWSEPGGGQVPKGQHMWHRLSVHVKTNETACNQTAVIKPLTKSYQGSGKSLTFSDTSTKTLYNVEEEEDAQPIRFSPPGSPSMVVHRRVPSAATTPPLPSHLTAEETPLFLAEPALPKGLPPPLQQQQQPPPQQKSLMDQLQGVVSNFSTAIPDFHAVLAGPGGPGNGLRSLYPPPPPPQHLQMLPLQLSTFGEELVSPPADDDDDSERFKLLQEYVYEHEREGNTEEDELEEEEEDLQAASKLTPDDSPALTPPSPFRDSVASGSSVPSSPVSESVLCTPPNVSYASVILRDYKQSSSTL

[8] = target: Metabotropic glutamate receptor 3 (Homo sapiens) (UniProt Q14832); assay: Negative allosteric modulation of mGlu3 receptor at 10 uM
[9] = target: Metabotropic glutamate receptor 2 (Homo sapiens) (UniProt Q14416); assay: Agonist activity at mGlu2 receptor at 10 uM; format: functional
Metabotropic glutamate receptor 2 (Homo sapiens), sequence (Q14416 19-872 limits assumed): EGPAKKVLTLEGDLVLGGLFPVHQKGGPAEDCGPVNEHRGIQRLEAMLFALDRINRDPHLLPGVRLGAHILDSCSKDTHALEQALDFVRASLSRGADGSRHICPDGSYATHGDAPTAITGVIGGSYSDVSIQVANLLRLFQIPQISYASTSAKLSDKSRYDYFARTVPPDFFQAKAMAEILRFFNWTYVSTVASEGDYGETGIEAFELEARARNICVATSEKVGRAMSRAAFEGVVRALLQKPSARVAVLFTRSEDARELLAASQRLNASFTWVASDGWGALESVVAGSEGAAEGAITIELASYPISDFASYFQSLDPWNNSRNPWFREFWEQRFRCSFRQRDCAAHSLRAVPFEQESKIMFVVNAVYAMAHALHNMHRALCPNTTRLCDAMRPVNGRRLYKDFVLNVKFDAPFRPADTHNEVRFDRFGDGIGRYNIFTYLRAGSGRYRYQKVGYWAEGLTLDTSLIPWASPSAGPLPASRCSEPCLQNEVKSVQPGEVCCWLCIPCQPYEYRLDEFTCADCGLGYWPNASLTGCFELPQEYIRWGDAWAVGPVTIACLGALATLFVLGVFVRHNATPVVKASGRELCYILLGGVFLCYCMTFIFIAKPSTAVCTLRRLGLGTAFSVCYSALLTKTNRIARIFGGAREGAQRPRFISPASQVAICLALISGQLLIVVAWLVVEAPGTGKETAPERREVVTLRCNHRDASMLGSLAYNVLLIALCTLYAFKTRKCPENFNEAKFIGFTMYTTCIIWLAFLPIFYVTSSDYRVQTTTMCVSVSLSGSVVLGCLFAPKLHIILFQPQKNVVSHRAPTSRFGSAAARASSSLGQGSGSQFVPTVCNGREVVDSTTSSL

Brain [10] = assay: Drug uptake in rat brain at 30 mg/kg, sc; format: ADME, organism-based; set-up: dose 30 mg/kg, route subcutaneous; conditions: in vivo
Cerebrospinal fluid = assay: Drug uptake in rat CSF at 30 mg/kg, sc; format: ADME, organism-based; set-up: dose 30 mg/kg, route subcutaneous; conditions: in vivo
[11] = target: Metabotropic glutamate receptor 6 (Homo sapiens) (UniProt O15303); assay: Negative allosteric modulation of mGlu6 receptor at 10 uM
Metabotropic glutamate receptor 6 (Homo sapiens), sequence (O15303 whole entry): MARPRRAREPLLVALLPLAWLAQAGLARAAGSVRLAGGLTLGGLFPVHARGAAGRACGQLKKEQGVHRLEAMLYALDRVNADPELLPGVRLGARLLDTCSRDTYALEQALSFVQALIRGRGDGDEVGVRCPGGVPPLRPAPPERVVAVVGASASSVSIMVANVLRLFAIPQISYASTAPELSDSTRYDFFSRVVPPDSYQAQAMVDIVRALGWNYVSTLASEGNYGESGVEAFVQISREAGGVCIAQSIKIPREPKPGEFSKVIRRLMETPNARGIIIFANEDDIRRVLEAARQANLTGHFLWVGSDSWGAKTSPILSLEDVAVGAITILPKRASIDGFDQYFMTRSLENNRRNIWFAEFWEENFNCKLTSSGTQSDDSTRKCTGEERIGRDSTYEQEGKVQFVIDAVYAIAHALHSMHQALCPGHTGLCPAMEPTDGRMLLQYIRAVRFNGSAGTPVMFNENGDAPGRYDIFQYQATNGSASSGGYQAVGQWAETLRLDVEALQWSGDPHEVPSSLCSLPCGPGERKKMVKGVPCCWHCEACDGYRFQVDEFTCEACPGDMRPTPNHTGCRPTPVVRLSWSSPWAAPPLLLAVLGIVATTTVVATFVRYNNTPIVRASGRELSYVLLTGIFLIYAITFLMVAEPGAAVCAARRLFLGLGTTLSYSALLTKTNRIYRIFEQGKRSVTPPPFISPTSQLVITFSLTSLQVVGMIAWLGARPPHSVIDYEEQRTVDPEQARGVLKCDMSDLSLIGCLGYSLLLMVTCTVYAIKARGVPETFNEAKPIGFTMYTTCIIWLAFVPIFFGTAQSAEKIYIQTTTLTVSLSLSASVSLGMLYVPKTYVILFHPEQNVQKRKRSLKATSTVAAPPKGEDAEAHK

Plasma = assay: Plasma concentration in rat at 30 mg/kg, sc; format: ADME, organism-based; set-up: dose 30 mg/kg, route subcutaneous; conditions: in vivo
[12] = target: Metabotropic glutamate receptor 1 (Homo sapiens) (UniProt Q13255); assay: Positive allosteric modulation of mGlu1 receptor at 10 uM
[13] = Plasma protein binding in rat; format: ADME, cell-free; conditions: read-out: PPB (converted)
CYP3A4 = CYP3A4 (Homo sapiens, UniProt P08684); assay: Inhibition of CYP3A4 at 5 uM; format: ADME
[14] = target: T2, Melatonin receptor type 1A (Homo sapiens, UniProt P48039); assay: Agonist activity at MT1 relative to control; format: functional
T2 sequence (P48039 whole entry): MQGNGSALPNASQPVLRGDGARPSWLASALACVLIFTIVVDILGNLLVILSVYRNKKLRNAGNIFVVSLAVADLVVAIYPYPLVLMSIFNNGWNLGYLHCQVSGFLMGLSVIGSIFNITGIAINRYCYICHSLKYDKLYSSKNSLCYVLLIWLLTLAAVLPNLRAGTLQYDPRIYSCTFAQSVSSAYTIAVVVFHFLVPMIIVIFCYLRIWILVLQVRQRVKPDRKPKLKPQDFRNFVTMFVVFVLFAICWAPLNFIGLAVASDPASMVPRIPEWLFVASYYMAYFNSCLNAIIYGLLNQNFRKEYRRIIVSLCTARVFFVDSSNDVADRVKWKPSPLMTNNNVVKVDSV

[15] = target: Metabotropic glutamate receptor 7 (Homo sapiens) (UniProt Q14831); assay: Agonist activity at mGlu7 receptor at 10 uM; format: functional
[16] = Kinetic solubility of the compound at pH 7.4; format: physicochemical; conditions: buffer, read-out: Kinetic_solubility
[17] = target: 5-hydroxytryptamine receptor 2B (Homo sapiens, UniProt P41595); assay: Inhibition of 5HT2B
[18] = target: Metabotropic glutamate receptor 8 (Homo sapiens) (UniProt O00222); assay: Negative allosteric modulation of mGlu8 receptor at 10 uM
CYP2B6 = target: T3, CYP2B6 (Homo sapiens, UniProt P20813); assay: Inhibition of CYP2B6 at 5 uM; format: ADME
T3 sequence (P20813 whole entry): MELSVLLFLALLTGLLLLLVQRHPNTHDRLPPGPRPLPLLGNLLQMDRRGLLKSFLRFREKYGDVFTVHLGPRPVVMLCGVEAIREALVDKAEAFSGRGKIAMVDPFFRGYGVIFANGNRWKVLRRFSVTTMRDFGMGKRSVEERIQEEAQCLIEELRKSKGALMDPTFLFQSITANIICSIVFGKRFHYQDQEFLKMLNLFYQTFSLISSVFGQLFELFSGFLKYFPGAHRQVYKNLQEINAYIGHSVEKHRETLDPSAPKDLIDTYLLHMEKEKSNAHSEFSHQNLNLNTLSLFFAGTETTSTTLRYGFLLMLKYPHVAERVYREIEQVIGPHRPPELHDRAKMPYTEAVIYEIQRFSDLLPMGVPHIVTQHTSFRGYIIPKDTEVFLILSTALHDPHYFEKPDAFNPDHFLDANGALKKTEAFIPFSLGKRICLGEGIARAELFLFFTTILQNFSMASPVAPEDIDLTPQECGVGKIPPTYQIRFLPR

[19] = target: Metabotropic glutamate receptor 5 (Homo sapiens) (UniProt P41594); assay: Agonist activity at mGlu5 receptor at 10 uM; format: functional
[20] = target: Metabotropic glutamate receptor 6 (Homo sapiens) (UniProt O15303); assay: Agonist activity at mGlu6 receptor at 10 uM; format: functional
[21] = Kinetic solubility of the compound at pH 4.0; format: physicochemical; conditions: buffer, read-out: Kinetic_solubility
[22] = target: Metabotropic glutamate receptor 8 (Homo sapiens) (UniProt O00222); assay: Positive allosteric modulation of mGlu8 receptor at 10 uM
[23] = target: T2, Melatonin receptor type 1A; assay: Agonist activity at MT1; format: functional
[24] = target: Metabotropic glutamate receptor 5 (Homo sapiens) (UniProt P41594); assay: Negative allosteric modulation of mGlu5 receptor at 10 uM
[25] = target: Metabotropic glutamate receptor 7 (Homo sapiens) (UniProt Q14831); assay: Positive allosteric modulation of mGlu7 receptor at 10 uM
[26] = target: Metabotropic glutamate receptor 1 (Homo sapiens) (UniProt Q13255); assay: Negative allosteric modulation of mGlu1 receptor at 10 uM
[27] = Ratio of drug level in brain to plasma in rat at 30 mg/kg, sc; format: ADME, organism-based; set-up: dose 30 mg/kg, route subcutaneous; conditions: read-out: BPR
[28] = target: Metabotropic glutamate receptor 3 (Homo sapiens) (UniProt Q14832); assay: Agonist activity at mGlu3 receptor at 10 uM; format: functional
[29] = target: Metabotropic glutamate receptor 2 (Homo sapiens) (UniProt Q14416); assay: Negative allosteric modulation of mGlu2 receptor at 10 uM
[30] = target: T1, Metabotropic glutamate receptor 4; assay: Positive allosteric modulation of human mGlu4 receptor expressed in BHK cells assessed as fold shift in calcium mobilization by FLIPR analysis relative to glutamate; format: functional, cell-based
[31] = Inhibition of benzodiazepine receptor
Brain [32] = assay: Fraction unbound in rat brain; format: ADME, tissue-based
[33] = target: Metabotropic glutamate receptor 2 (Homo sapiens) (UniProt Q14416); assay: Positive allosteric modulation of mGlu2 receptor at 10 uM
[34] = Lipophilicity, log D of compound at pH 7.4; format: physicochemical; conditions: buffer
CYP2C9 = CYP2C9 (Homo sapiens, UniProt P11712); assay: Inhibition of CYP2C9 at 5 uM; format: ADME
[35] = target: Metabotropic glutamate receptor 3 (Homo sapiens) (UniProt Q14832); assay: Positive allosteric modulation of mGlu3 receptor at 10 uM
[36] = target: Metabotropic glutamate receptor 6 (Homo sapiens) (UniProt O15303); assay: Positive allosteric modulation of mGlu6 receptor at 10 uM
Rattus norvegicus = species on record: Rattus norvegicus; assay: Intrinsic clearance in rat; format: ADME, organism-based; conditions: in vivo

SMILES: Oc1ccc2c(-c3cnn(-c4ccccc4)c3)ccnc2c1
- EC50 [1]: > 10000 nM
- Emax [2]: 4%

SMILES: CCNC(=O)Oc1ccc2c(-c3cnn(-c4ccccc4)c3)ccnc2c1
- EC50 [1]: 10000 nM
- Emax [2]: 86%

SMILES: FC(F)(F)c1ccc2c(-c3cnn(-c4ccccc4)c3)ccnc2c1
- EC50 [1]: 550 nM
- Emax [2]: 140%

SMILES: Fc1ccc2c(-c3cnn(-c4ccccc4)c3)ccnc2c1
- EC50 [1]: 730 nM
- Emax [2]: 120%

SMILES: c1ccc(-n2cc(-c3ccnc4ccccc34)cn2)cc1
- Activity [3]: inactive
- IC50 [4]: 2500 nM
- EC50 [1]: 220 nM
- Activity [5]: inactive
- Activity [6]: inactive
- Activity [7]: inactive
- Activity [8]: inactive
- Activity [9]: inactive
- Drug uptake (Brain [10]): 5055 ng/g
- Drug uptake (Cerebrospinal fluid): 72 ng/mL
- Activity [11]: inactive
- Cp (Plasma): 1886 ng/mL
- Activity [12]: inactive
- fraction unbound [13]: 0.004
- inhibition at 5 µM (CYP3A4): 38%
- Emax [2]: 105%
- Emax [14]: 84%
- Activity [15]: inactive
- solubility kinetic [16]: 21 µM (≈ 5.7 µg/mL)
- IC50 [17]: 1600 nM
- Activity [18]: inactive
- inhibition at 5 µM (CYP2B6): 56%
- Activity [19]: inactive
- Activity [20]: inactive
- solubility kinetic [21]: 150 µM (≈ 40.7 µg/mL)
- Activity [22]: inactive
- EC50 [23]: 920 nM
- Activity [24]: inactive
- Activity [25]: inactive
- Activity [26]: inactive
- Kp [27]: 2.7
- Activity [28]: inactive
- Activity [29]: inactive
- Ratio [30]: 12
- IC50 [31]: 3.1 µM
- Fu (Brain [32]): 0.7%
- Activity [33]: inactive
- logD [34]: 3.9
- inhibition at 5 µM (CYP2C9): 48%
- Activity [35]: inactive
- Activity [36]: inactive
- CL (Rattus norvegicus): 550 mL/min

SMILES: c1ccc2c(-c3cn[nH]c3)ccnc2c1
- EC50 [1]: > 10000 nM
- Emax [2]: 6%

SMILES: O=C(COc1ccc2c(-c3cnn(-c4ccccc4)c3)ccnc2c1)N1CCOCC1
- EC50 [1]: > 10000 nM
- Emax [2]: 17%

SMILES: OCCCOc1ccc2c(-c3cnn(-c4ccccc4)c3)ccnc2c1
- EC50 [1]: > 10000 nM
- Emax [2]: 23%

SMILES: c1ccc(-n2cc(-c3ncnc4ccccc34)cn2)cc1
- EC50 [1]: 3500 nM
- Emax [2]: 35%

SMILES: COCCCOc1ccc2c(-c3cnn(-c4ccccc4)c3)ccnc2c1
- EC50 [1]: 250 nM
- Emax [2]: 88%

SMILES: c1ccc(-n2cc(-c3ccnc4cc(OCCCN5CCCC5)ccc34)cn2)cc1
- EC50 [1]: > 10000 nM
- Emax [2]: 7%

SMILES: c1ccc(-n2cc(-c3ccnc4cc(OCCN5CCOCC5)ccc34)cn2)cc1
- EC50 [1]: 1800 nM
- Emax [2]: 39%

SMILES: O=C(Oc1ccc2c(-c3cnn(-c4ccccc4)c3)ccnc2c1)N1CCCC1
- EC50 [1]: 500 nM
- Emax [2]: 120%

SMILES: c1csc(-n2cc(-c3ccnc4ccccc34)cn2)c1
- EC50 [1]: 4300 nM
- Emax [2]: 52%

SMILES: Cc1cnccc1-c1cnn(-c2ccccc2)c1
- EC50 [1]: 5100 nM
- Emax [2]: 90%

SMILES: Fc1ccc(-n2cc(-c3ccnc4ccccc34)cn2)cc1
- EC50 [1]: 2900 nM
- Emax [2]: 110%

SMILES: CC(=O)N1CCN(CCOc2ccc3c(-c4cnn(-c5ccccc5)c4)ccnc3c2)CC1
- EC50 [1]: 690 nM
- Emax [2]: 75%

SMILES: c1ccc(COc2ccc3c(-c4cnn(-c5ccccc5)c4)ccnc3c2)cc1
- EC50 [1]: 640 nM
- Emax [2]: 110%

SMILES: O=C(Oc1ccc2c(-c3cnn(-c4ccccc4)c3)ccnc2c1)N1CCCCC1
- EC50 [1]: 190 nM
- Emax [2]: 130%

SMILES: c1ccc(-n2cc(-c3ccnc4cc(OCCCN5CCOCC5)ccc34)cn2)cc1
- EC50 [1]: 2800 nM
- Emax [2]: 64%

SMILES: Fc1ccccc1-n1cc(-c2ccnc3ccccc23)cn1
- EC50 [1]: 1100 nM
- Emax [2]: 70%

SMILES: Cc1c(-c2ccnc3ccccc23)cnn1-c1ccccc1
- EC50 [1]: 670 nM
- Emax [2]: 130%
